The values that follow come from patent US20070155730A1, “Benzodiazepine And Benzopiperazine Analog Inhibitors Of Histone Deacetylase” (METHYLGENE, INC., priority 2005, published 2007).

The structures appear in SMILES notation.

In general, IC50 refers to the concentration that inhibits the measured activity by half.

The assay deals with histone deacetylase (HDAC). The assay can be described thus: Inhibition of Histone Deacetylase Enzymatic Activity. Particulars: substrate Boc-Lys(Ac)-AMC, Fluor-de-Lys developer, 37° C., 20 min; against one or more of HDAC-1 to HDAC-11, SirT1 to SirT7 (isoform not given); read-out: HDAC Inhibitory Activity (IC50). The format is biochemical. The method in brief:
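Enzyme preincubated with compound at room temperature in 25 mM HEPES pH 8.0, 137 mM NaCl, 2.7 mM KCl, 1 mM MgCl2; reaction started at 37 °C with Boc-Lys(Ac)-AMC substrate. Fluorescence read ex 360/em 470 nm after 10 min dark incubation; activity binned into ranges A–D (<0.05 to <10 μM).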
In the case of `CC(C)C[C@@H]1Nc2ccc(C(=O)NO)cc2NC1=O` [Compound 4k, (S)-1,2,3,4-Tetrahydro-N-hydroxy-2-isobutyl-3-oxoquinoxaline-6-carboxamide], the IC50 fell in the range of 2000 to 10000 nM.
As for `O=C1CNC(=O)c2ccc(C(=O)NO)cc2N1` [Compound 97k, N-Hydroxy-2,5-dioxo-2,3,4,5-tetrahydro-1H-benzo[e][1,4]diazepine-8-carboxamide], the figure is 2000 to 10000 nM.
On to `COc1ccc(CN2c3ccc(NC(=O)CCCCCCC(=O)NO)cc3NC(=O)[C@H]2C(C)C)cc1` [Compound 26e, N1—((R)-1-(4-Methoxybenzyl)-1,2,3,4-tetrahydro-2-isopropyl-3-oxoquinoxalin-6-yl)-N8-hydroxyoctanediamide], for which the IC50 lay within 50 to 500 nM.
Under `C[C@@H]1NC(=O)c2ccccc2N(CCCCCC(=O)NO)C1=O` [Compound 68b22, 6-((S)-2,3,4,5-Tetrahydro-3-methyl-2,5-dioxobenzo[e][1,4]diazepin-1-yl)-N-hydroxyhexanamide] stands 500 to 2000 nM; under `Nc1ccccc1NC(=O)c1ccc(CN2c3ccccc3NC(=O)[C@@H]2Cc2cccs2)cc1` [Compound 54c, (S)—N-(2-aminophenyl)-4-((3-oxo-2-(thiophen-2-ylmethyl)-3,4-dihydroquinoxalin-1(2H)-yl)methyl)benzamide], 50 to 500 nM.
As for `O=C(CCCCCN1C(=O)[C@@H](Cc2c[nH]c3ccccc23)NC(=O)c2ccccc21)NO` [Compound 68b8, 6-((R)-3-((1H-Hz, indol-3-yl)methyl)-2,3,4,5-tetrahydro-2,5-dioxobenzo[e][1,4]diazepin-1-yl)-N-hydroxyhexanamide], the figure is 50 to 500 nM; as for `O=C(CCCCCN1C(=O)[C@@H](c2ccccc2)NC(=O)c2ccccc21)NO` [Compound 68b4, 6-((R)-2,3,4,5-tetrahydro-2,5-dioxo-3-phenylbenzo[e][1,4]diazepin-1-yl)-N-hydroxyhexanamide], 50 to 500 nM; as for `O=C(NO)c1ccc(O[C@@H]2C[C@@H](C(=O)Nc3cccc4cccnc34)N(C(=O)OCc3ccccc3)C2)cc1` [Compound 109b, (2S,4R)- Benzyl 4-(4-(hydroxycarbamoyl)phenoxy)-2-(quinolin-8-ylcarbamoyl) pyrrolidine-1-carboxylate], 50 to 500 nM.
Under `CC(C)[C@@H]1Nc2ccc(C(=O)NO)cc2NC1=O` [Compound 4a, (S)-1,2,3,4-Tetrahydro-N-hydroxy-2-isopropyl-3-oxoquinoxaline-6-carboxamide] stands 2000 to 10000 nM.
In the case of `CC(C)C[C@H]1NC(=O)c2ccccc2N(CCCCCC(=O)NO)C1=O` [Compound 68b12, 6-((R)-2,3,4,5-tetrahydro-3-isobutyl-2,5-dioxobenzo[e][1,4]diazepin-1-yl)-N-amide], the half-maximal inhibitory concentration (IC50) was in the range of 50 to 500 nM.
Under `O=C(CCCCCN1C(=O)[C@@H](Cc2ccncc2)NC(=O)c2ccccc21)NO` [Compound 68b9, 6-((R)-2,3,4,5-Tetrahydro-2,5-dioxo-3-((pyridin-4-yl)methyl)benzo [e][1,4]diazepin-1-yl)-N-hydroxyhexanamide] stands 500 to 2000 nM; under `O=C(NO)c1ccc2c(c1)NC(=O)[C@H](Cc1c[nH]c3ccccc13)NC2=O` [Compound 97c, (S)-3-((1H-Indol-3-yl)methyl)-N-hydroxy-2,5-dioxo-2,3,4,5-tetrahydro-1H-benzo[e][1,4]diazepine-8-carboxamide], 500 to 2000 nM.
As for `O=C(CCCCCN1C(=O)[C@H](C2CCCCC2)NC(=O)c2ccccc21)NO` [Compound 68b19, 6-((S)-3-Cyclohexyl-2,3,4,5-tetrahydro-2,5-dioxobenzo[e][1,4]diazepin-1-yl)-N-hydroxyhexanamide], the figure is 500 to 2000 nM.
Under `O=C(NO)c1ccc(CN2c3ccccc3NC(=O)[C@H]2Cc2ccc(C(F)(F)F)cc2)cc1` [Compound 54b17, (R)-4-((2-(4-trifluoromethylbenzyl)-3-oxo-3,4-dihydroquinoxalin-1(2H)-yl)methyl)-N-hydroxybenzamide] stands 50 to 500 nM; under `O=C(NO)c1ccc(CN2c3ccccc3NC(=O)[C@@H]2Cc2ccccc2)cc1` [Compound 54b4, (S)-4-((2-benzyl-3-oxo-3,4-dihydroquinoxalin-1(2H)-yl)methyl)-N-hydroxybenzamide], < 50 nM; under `O=C(NO)c1ccc(O[C@H]2C[C@@H](C(=O)Nc3cccc4cccnc34)N(C(=O)OCc3ccccc3)C2)cc1` [Compound 109a, (2S,4S)-Benzyl 4-(4-(hydroxycarbamoyl)phenoxy)-2-(quinolin-8-ylcarbamoyl)pyrrolidine-1-carboxylate], 50 to 500 nM.
On to `O=C(NO)c1ccc2c(c1)NC(=O)[C@@H](Cc1c[nH]c3ccccc13)N2` [Compound 4f, (R)-2-((1H-indol-3-yl)methyl)-1,2,3,4-tetrahydro-N-hydroxy-3-oxoquinoxaline-6-carboxamide], for which the IC50 is 2000 to 10000 nM.
As for `CC(C)[C@H]1C(=O)Nc2cc(C(=O)NO)ccc2N1Cc1cccs1` [Compound 16e, (S)-1,2,3,4-tetrahydro-N-hydroxy-2-isopropyl-3-oxo-1-((thiophen-2-yl)methyl)quinoxaline-6-carboxamide], the figure is 2000 to 10000 nM.
As for `COc1ccc(CN2c3ccccc3NC(=O)C2CCCCCC(=O)NO)cc1` (stereo not shown) [Compound 47a, 6-(1-(4-methoxybenzyl)-1,2,3,4-tetrahydro-3-oxoquinoxalin-2-yl)-N-hydroxyhexanamide], the figure is 50 to 500 nM; as for `Nc1ccccc1NC(=O)c1ccc2c(c1)NC(=O)[C@H](Cc1c[nH]c3ccccc13)N2` [Compound 5c, (S)-2-((1H-indol-3-yl)methyl)-N-(2-aminophenyl)-1,2,3,4-tetrahydro-3-oxoquinoxaline-6-carboxamide], 2000 to 10000 nM.
Under `O=C(NO)c1ccc(CN2c3ccccc3NC(=O)[C@H]2Cc2csc3ccccc23)cc1` [Compound 54b13, (R)-4-((2-(benzo[b]thiophen-3-ylmethyl)-3-oxo-3,4-dihydroquinoxalin-1(2H)-yl)methyl)-N-hydroxybenzamide] stands < 50 nM.
As to `O=C(CCCCCC1NC(=O)c2ccccc2NC1=O)NO` (stereo not shown) [Compound 74, 6-(2,3,4,5-Tetrahydro-2,5-dioxo-1H-benzo[e][1,4]diazepin-3-yl)-N-hydroxyhexanamide], the IC50 was 50 to 500 nM.
Under `O=C(CCOC1C[C@@H](C(=O)Nc2cccc3cccnc23)N(C(=O)OCc2ccccc2)C1)NO` (stereo in doubt) [Compound 112d, (2S,4S)-benzyl 4-(3-(hydroxyamino)-3-oxopropoxy)-2-(quinolin-8-ylcarbamoyl) pyrrolidine-1-carboxylate] stands 50 to 500 nM; under `CC(C)[C@H]1C(=O)Nc2cc(C(=O)NO)ccc2N1Cc1ccc(F)cc1` [Compound 16a, (S)-1-(4-fluorobenzyl)-N-hydroxy-2-isopropyl-3-oxo-1,2,3,4-tetrahydroquinoxaline-6-carboxamide], 2000 to 10000 nM.
Under `O=C(CCCCCC1NC(=O)c2cc(Oc3ccccc3)ccc2NC1=O)NO` (stereo not shown) [Compound 88a, 6-(2,3,4,5-Tetrahydro-2,5-dioxo-7-phenoxy-1H-benzo[e][1,4]diazepin-3-yl)-N-hydroxyhexanamide] stands 50 to 500 nM.
Under `CC(C)(C)OC(=O)NCCCC[C@@H]1C(=O)Nc2ccccc2N1Cc1ccc(C(=O)NO)cc1` [Compound 54b9, (R)-tert-butyl 4-(1-(4-(hydroxycarbamoyl)benzyl)-3-oxo-1,2,3,4-tetrahydroquinoxalin-2-yl)butylcarbamate] stands < 50 nM; under `CC(C)[C@H]1C(=O)Nc2cc(C(=O)NO)ccc2N1CCCc1ccccc1` [Compound 16c, (S)-1,2,3,4-tetrahydro-N-hydroxy-2-isopropyl-3-oxo-1-(3-phenylpropyl)quinoxaline-6-carboxamide], 500 to 2000 nM.
Consider `CC(C)[C@H]1C(=O)Nc2cc(C(=O)NO)ccc2N1Cc1ccc(O)cc1` [Compound 16b, (S)-1-(4-hydroxybenzyl)-1,2,3,4-tetrahydro-N-hydroxy-2-isopropyl-3-oxoquinoxaline-6-carboxamide], for which the IC50 was 500 to 2000 nM.
